Source: ChEMBL document CHEMBL1201862, “PubChem BioAssay data set” (2004)
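48-hour exposure; five concentrations; linearly interpolated endpoints. The concentration for 50% growth inhibition is given as GI50.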 Activity calls are given as the source filed them. No stated cut-off is given here; in the data, active = GI50 up to about 1.1 µM and inactive = higher.

Tests used:
Test in all cases: growth of human tumour cells (NCI), 48 h
[1] = system: A498
[2] = system: A549
[3] = system: EKVX
[4] = system: HCT-116
[5] = system: HOP-62
[6] = system: HT-29
[7] = system: Hs-578T
[8] = system: NCI-H460
[9] = system: OVCAR-3
[10] = system: RXF 393
[11] = system: SF-295
[12] = system: SK-MEL-5
[13] = system: UACC-62
[14] = system: UO-31
[15] = system: K562
[16] = system: MCF7
[17] = system: MDA-N
[18] = system: SN12C

SMILES | GI50 [1] | GI50 [2] | GI50 [3] | GI50 [4] | GI50 [5] | GI50 [6] | GI50 [7] | GI50 [8] | GI50 [9] | GI50 [10] | GI50 [11] | GI50 [12] | GI50 [13] | GI50 [14] | GI50 [15] | GI50 [16] | GI50 [17] | GI50 [18]
Cc1c(/C=N\NC(=S)N(C)CCN(C)C(=S)N/N=C\c2c(C)n(C)n(-c3ccccc3)c2=O)c(=O)n(-c2ccccc2)n1C | > 100 µM (inactive) | > 100 µM (inactive) | > 100 µM (inactive) | > 100 µM (inactive) | > 100 µM (inactive) | > 100 µM (inactive) | > 100 µM (inactive) | > 100 µM (inactive) | > 100 µM (inactive) | > 100 µM (inactive) | > 100 µM (inactive) | > 100 µM (inactive) | > 100 µM (inactive) | > 100 µM (inactive) | – | – | – | –
CCN1CCN=C2c3cc(OC)ccc3Nc3c([N+](=O)[O-])ccc1c32 | – | 0.667 µM (active) | 2.12 µM (inactive) | – | 0.634 µM (active) | 0.705 µM (active) | – | – | – | 0.556 µM (active) | 1.61 µM (inactive) | 1.17 µM (inactive) | 1.39 µM (inactive) | – | 0.473 µM (active) | 1.28 µM (inactive) | 0.839 µM (active) | 0.796 µM (active)
CC(=O)[C@@H]1[C@@H](OC(=O)CCC(C)COC2OC(CO)C(O)C(O)C2O)C[C@H]2[C@@H]3CC=C4C[C@@H](OC5OC(CO)C(OC6OC(C)C(O)C(O)C6O)C(O)C5OC5OC(C)C(O)C(O)C5O)CC[C@]4(C)[C@H]3CC[C@]12C (stereo partly drawn) | > 100 µM (inactive) | > 100 µM (inactive) | > 100 µM (inactive) | > 100 µM (inactive) | > 100 µM (inactive) | – | – | > 100 µM (inactive) | > 100 µM (inactive) | > 100 µM (inactive) | > 100 µM (inactive) | > 100 µM (inactive) | > 100 µM (inactive) | > 100 µM (inactive) | > 100 µM (inactive) | > 100 µM (inactive) | > 100 µM (inactive) | > 100 µM (inactive)
COc1cc(Br)c(OC)c2c(OC)cc(C)cc12 | > 100 µM (inactive) | – | – | > 100 µM (inactive) | > 100 µM (inactive) | 67.8 µM (inactive) | 52 µM (inactive) | > 100 µM (inactive) | > 100 µM (inactive) | 50.1 µM (inactive) | > 100 µM (inactive) | – | > 100 µM (inactive) | > 100 µM (inactive) | 67 µM (inactive) | > 100 µM (inactive) | – | > 100 µM (inactive)
Cc1ccc([N+](=O)[O-])cc1NC(=O)C(=O)C1CCC2=C(Sc3ccccc3N2)C1=O (stereo not drawn) | – | > 100 µM (inactive) | > 100 µM (inactive) | 68.2 µM (inactive) | > 100 µM (inactive) | > 100 µM (inactive) | > 100 µM (inactive) | > 100 µM (inactive) | 23 µM (inactive) | > 100 µM (inactive) | > 100 µM (inactive) | > 100 µM (inactive) | > 100 µM (inactive) | 60 µM (inactive) | – | > 100 µM (inactive) | > 100 µM (inactive) | > 100 µM (inactive)
COC[C@H](Cc1ccccc1)/N=C/c1ccccc1 | – | > 100 µM (inactive) | > 100 µM (inactive) | > 100 µM (inactive) | > 100 µM (inactive) | > 100 µM (inactive) | > 100 µM (inactive) | > 100 µM (inactive) | – | > 100 µM (inactive) | > 100 µM (inactive) | > 100 µM (inactive) | > 100 µM (inactive) | > 100 µM (inactive) | > 100 µM (inactive) | > 100 µM (inactive) | – | > 100 µM (inactive)
COP1(=O)OCc2cnccc2O1 (stereo not drawn) | – | > 100 µM (inactive) | > 100 µM (inactive) | > 100 µM (inactive) | > 100 µM (inactive) | > 100 µM (inactive) | > 100 µM (inactive) | > 100 µM (inactive) | > 100 µM (inactive) | – | > 100 µM (inactive) | > 100 µM (inactive) | > 100 µM (inactive) | > 100 µM (inactive) | > 100 µM (inactive) | > 100 µM (inactive) | > 100 µM (inactive) | > 100 µM (inactive)
